ChEMBL document CHEMBL1132880, “Novel arylpiperazines as selective alpha1-adrenergic receptor antagonists” (Bioorg Med Chem Lett, 2000)

How the values were obtained:
Rattus norvegicus = species: Rattus norvegicus; experiment: pA2 data of Compound was evaluated for tissue contractions in isolated rat prostatic tissue strips.; type: functional; conditions: read-out: pA2 (converted)
[1] = biological target: Alpha adrenergic receptor (1a and 1d) (Homo sapiens) (UniProt P35348+P25100); experiment: Relative binding affinity for human adrenergic receptor alpha 1d and 1a; type: protein assay
[2] = biological target: T1, Alpha-1A adrenergic receptor (Homo sapiens, UniProt P35348); experiment: Binding affinity for human Alpha-1A adrenergic receptor expressed in COS cell membranes
T1 sequence (P35348 whole entry): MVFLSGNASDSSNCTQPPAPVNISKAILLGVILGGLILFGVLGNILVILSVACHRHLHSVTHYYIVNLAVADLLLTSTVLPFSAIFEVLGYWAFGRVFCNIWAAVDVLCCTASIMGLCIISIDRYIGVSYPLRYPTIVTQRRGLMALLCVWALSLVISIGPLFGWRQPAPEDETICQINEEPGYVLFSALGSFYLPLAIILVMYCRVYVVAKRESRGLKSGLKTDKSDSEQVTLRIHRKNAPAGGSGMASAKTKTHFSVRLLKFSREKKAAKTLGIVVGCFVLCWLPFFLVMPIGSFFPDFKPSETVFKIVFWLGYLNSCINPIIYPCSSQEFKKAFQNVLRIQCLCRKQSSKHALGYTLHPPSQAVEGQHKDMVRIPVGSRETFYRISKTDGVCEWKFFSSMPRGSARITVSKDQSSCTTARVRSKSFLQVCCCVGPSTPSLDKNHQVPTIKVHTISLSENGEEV

[3] = biological target: T2, Alpha-1D adrenergic receptor (Homo sapiens, UniProt P25100); experiment: Binding affinity for human Alpha-1D adrenergic receptor expressed in COS cell membranes
T2 sequence (P25100 whole entry): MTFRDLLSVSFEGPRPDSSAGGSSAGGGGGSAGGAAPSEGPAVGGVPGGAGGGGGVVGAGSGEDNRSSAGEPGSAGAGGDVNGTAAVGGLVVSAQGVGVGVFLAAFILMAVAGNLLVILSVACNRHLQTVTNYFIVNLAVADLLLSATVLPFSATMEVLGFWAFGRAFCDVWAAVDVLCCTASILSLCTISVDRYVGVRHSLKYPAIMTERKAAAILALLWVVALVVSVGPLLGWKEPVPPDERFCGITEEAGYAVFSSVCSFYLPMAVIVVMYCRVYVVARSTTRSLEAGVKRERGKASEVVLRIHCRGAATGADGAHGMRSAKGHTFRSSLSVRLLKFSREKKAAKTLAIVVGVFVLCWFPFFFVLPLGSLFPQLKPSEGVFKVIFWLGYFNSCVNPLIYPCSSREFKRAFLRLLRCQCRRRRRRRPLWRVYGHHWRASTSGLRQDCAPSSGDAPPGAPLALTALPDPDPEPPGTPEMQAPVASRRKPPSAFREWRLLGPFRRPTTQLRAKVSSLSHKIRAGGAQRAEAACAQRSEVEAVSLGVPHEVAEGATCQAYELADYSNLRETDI

[4] = biological target: Adrenergic receptors; alpha-1 A & B (Homo sapiens) (UniProt P35348+P35368); experiment: Relative binding affinity for human adrenergic receptor alpha 1b and alpha 1a; type: protein assay
[5] = biological target: T3, Alpha-1B adrenergic receptor (Homo sapiens, UniProt P35368); experiment: Binding affinity for human Alpha-1B adrenergic receptor expressed in COS cell membranes
T3 sequence (P35368 whole entry): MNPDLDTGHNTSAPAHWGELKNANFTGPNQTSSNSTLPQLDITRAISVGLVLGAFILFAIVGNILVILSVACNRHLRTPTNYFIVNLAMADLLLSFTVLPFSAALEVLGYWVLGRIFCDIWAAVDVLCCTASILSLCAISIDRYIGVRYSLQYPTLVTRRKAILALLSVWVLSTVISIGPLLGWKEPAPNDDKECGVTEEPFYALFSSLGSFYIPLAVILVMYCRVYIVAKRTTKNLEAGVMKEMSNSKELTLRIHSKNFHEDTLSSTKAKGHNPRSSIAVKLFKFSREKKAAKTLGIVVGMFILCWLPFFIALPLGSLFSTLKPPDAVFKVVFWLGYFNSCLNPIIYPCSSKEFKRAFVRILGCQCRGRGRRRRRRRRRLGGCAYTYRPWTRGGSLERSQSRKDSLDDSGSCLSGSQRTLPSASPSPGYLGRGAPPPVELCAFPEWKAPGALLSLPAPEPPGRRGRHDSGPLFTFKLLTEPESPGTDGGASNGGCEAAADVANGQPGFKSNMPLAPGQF

| Compound | Ratio [1] | Ki [2] | Ki [3] | Ratio [4] | Ki [5] | Kb (Rattus norvegicus) |
| --- | --- | --- | --- | --- | --- | --- |
| CCOC(=O)C1CCC(=O)N1CC(=O)NCCN1CCN(c2ccccc2OC(C)C)CC1 (stereo not drawn) | 13 | 20 nM | 260 nM | 1320 | 26300 nM | 16.2 nM |
| CC(C)Oc1ccccc1N1CCN(CC(O)CC(=O)CN2CCCCC2=O)CC1 (stereo not drawn) | 9 | 28 nM | 253 nM | 556 | 10000 nM | – |
| CC(C)Oc1ccccc1N1CCN(CCOC(=O)CN2CCCCC2=O)CC1 | 3 | 38 nM | 108 nM | 59 | 2240 nM | – |
| COc1ccccc1N1CCN(CCCNC(=O)CN2CCCCC2=O)CC1 | 102 | 98 nM | 10000 nM | 102 | 10000 nM | – |
| O=C(CN1CCCCC1=O)NCCN1CCN(c2ccc(F)cc2OCC(F)(F)F)CC1 | 41 | 129 nM | 5350 nM | 77 | 10000 nM | – |
| CC(C)Oc1ccccc1N1CCN(C/C=C/C(=O)CN2CCCCC2=O)CC1 | 33 | 18 nM | 602 nM | 295 | 5320 nM | – |
| CC(C)Oc1cc(F)ccc1N1CCN(CCNC(=O)CN2CCCCC2=O)CC1 | 54 | 83 nM | 4500 nM | 120 | 10000 nM | – |
| CC(C)Oc1ccccc1N1CCN(CCN(C)C(=O)CN2CCCCC2=O)CC1 | 12 | 53 nM | 650 nM | 187 | 10000 nM | – |
| CC(C)Oc1ccccc1N1CCN(CC(=O)CC(=O)CN2CCCCC2=O)CC1 | 14 | 417 nM | 6040 nM | 24 | 10000 nM | – |

The next lines start with results.

| Ratio [1] | Ki [2] | Ki [3] | Ratio [4] | Ki [5] | Compound | Kb (Rattus norvegicus) |
| --- | --- | --- | --- | --- | --- | --- |
| 43 | 8.7 nM | 372 nM | 5300 | 46100 nM | CC(C)Oc1ccccc1N1CCN(CCNC(=O)CN2CCCCC2=O)CC1 [RWJ-38063] | 31.6 nM |
| 121 | 0.66 nM | 80 nM | 15200 | 10000 nM | CC(C)Oc1ccccc1N1CCN(CCCNC(=O)CN2CCCCC2=O)CC1 [RWJ-69736] | – |
| 28 | 18 nM | 505 nM | 196 | 3540 nM | CC(C)Oc1ccccc1N1CCN(CCNC(=O)CN2CCCCCC2=O)CC1 [RWJ-68157] | 204 nM |
